Test results: patent US20240376163A1, “PEPTIDE FOR INHIBITING CALCINEURIN AND USE THEREOF” (Seoul National University R&DB Foundation, priority 2023, published 2024)

Tested on: Jurkat T cells
Test: mRNA sequencing of activated Jurkat T cells
Type: cell-based, human
Settings: Jurkat T cells, P + I

C=CC[C@@H]1/C=C(\C)C[C@H](C)C[C@H](OC)[C@H]2O[C@@](O)(C(=O)C(=O)N3CCCC[C@H]3C(=O)O[C@H](/C(C)=C/[C@@H]3CC[C@@H](O)[C@H](OC)C3)[C@H](C)[C@@H](O)CC1=O)[C@H](C)C[C@@H]2OC [FK506, Tacrolimus, reference compound]
ABTB2 FPKM: 2.549 FPKM
ACAP1 FPKM: 35.261 FPKM
ACSF3 FPKM: 22.755 FPKM
ADA FPKM: 74.531 FPKM
ADAMTS17 FPKM: 0.843 FPKM
ADCYAP1 FPKM: 3.646 FPKM
ADORA2A FPKM: 0.998 FPKM
AFF2 FPKM: 4.374 FPKM
AGK FPKM: 14.029 FPKM
ALDH1A2 FPKM: 7.041 FPKM
ALOX5AP FPKM: 92.971 FPKM
ANKEF1 FPKM: 3.081 FPKM
ANO8 FPKM: 3.26 FPKM
ANTXR2 FPKM: 53.159 FPKM
APH1B FPKM: 5.12 FPKM
APOBEC3B-AS1 FPKM: 13.251 FPKM
APOBEC3F FPKM: 5.861 FPKM
APOBEC3G FPKM: 8.803 FPKM
APOL1 FPKM: 4.036 FPKM
ARHGAP4 FPKM: 15.97 FPKM
ARHGAP25 FPKM: 3.447 FPKM
ARHGAP31 FPKM: 10.889 FPKM
ARHGEF3 FPKM: 8.637 FPKM
ARPP21 FPKM: 1.29 FPKM
ASB13 FPKM: 2.277 FPKM
ASNS FPKM: 20.436 FPKM
ATHL1 FPKM: 4.597 FPKM
ATP2A3 FPKM: 47.81 FPKM
ATP6V0A4 FPKM: 21.385 FPKM
ATP6V1B2 FPKM: 50.672 FPKM
ATPAF1 FPKM: 11.764 FPKM
AVPR2 FPKM: 1.21 FPKM
B2M FPKM: 1155.981 FPKM
BAHCC1 FPKM: 1 FPKM
BCL2A1 FPKM: 21.118 FPKM
BCL2L1 FPKM: 39.402 FPKM
BCL3 FPKM: 14.57 FPKM
BCL6 FPKM: 15.181 FPKM
BCL7A FPKM: 12.185 FPKM
BCL11B FPKM: 3.688 FPKM
BEND6 FPKM: 1.416 FPKM
BIN1 FPKM: 2.374 FPKM
BIRC3 FPKM: 30.767 FPKM
C10orf55 FPKM: 7.632 FPKM
C11orf74 FPKM: 0.365 FPKM
C21orf58 FPKM: 5.847 FPKM
CABP1 FPKM: 1.201 FPKM
CAMK2D FPKM: 5.855 FPKM
CARHSP1 FPKM: 20.082 FPKM
CBFA2T3 FPKM: 12.236 FPKM
CBLB FPKM: 8.881 FPKM
CBS FPKM: 3.935 FPKM
CBX2 FPKM: 2.786 FPKM
CCDC15 FPKM: 3.535 FPKM
CCL3 FPKM: 0 FPKM
CCL3L3 FPKM: 0 FPKM
CCL20 FPKM: 0 FPKM
CCND3 FPKM: 30.402 FPKM
CCNE2 FPKM: 6.298 FPKM
CD1B FPKM: 4.115 FPKM
CD1E FPKM: 4.975 FPKM
CD70 FPKM: 3.005 FPKM
CD82 FPKM: 171.933 FPKM
CD97 FPKM: 19.394 FPKM
CD200 FPKM: 0 FPKM
CD274 FPKM: 7.13 FPKM
CDKN1A FPKM: 39.264 FPKM
CDKN2D FPKM: 17.642 FPKM
CECR1 FPKM: 5.304 FPKM
CENPM FPKM: 13.201 FPKM
CEP70 FPKM: 14.887 FPKM
CERKL FPKM: 13.458 FPKM
CFLAR FPKM: 3.438 FPKM
CHEK2 FPKM: 8.907 FPKM
CHPF2 FPKM: 36.42 FPKM
CHPF FPKM: 9.759 FPKM
CHRNA3 FPKM: 4.293 FPKM
CHST12 FPKM: 13.527 FPKM
CNN2 FPKM: 30.77 FPKM
COL27A1 FPKM: 4.463 FPKM
CPD FPKM: 23.208 FPKM
CREB3L2 FPKM: 5.62 FPKM
CREB5 FPKM: 0.577 FPKM
CSF1 FPKM: 1.706 FPKM
CSF2 FPKM: 0 FPKM
CXCL8 FPKM: 0.937 FPKM
CXCL11 FPKM: 0.695 FPKM
CXCR4 FPKM: 38.979 FPKM
CYTH1 FPKM: 33.17 FPKM
DBP FPKM: 2.396 FPKM
DCBLD2 FPKM: 13.786 FPKM
DENND5A FPKM: 24.792 FPKM
DNAJB5 FPKM: 19.238 FPKM
DSTYK FPKM: 3.501 FPKM
DTL FPKM: 5.862 FPKM
DTX1 FPKM: 4.414 FPKM
DUSP6 FPKM: 9.728 FPKM
DUSP10 FPKM: 11.981 FPKM
E2F7 FPKM: 4.531 FPKM
